Test: xn = mol fraction of the nth substance listed
Conditions: Liquid, Vibrating tube method

COC(=O)OC [dimethyl carbonate] + CCCO
mass density [kg/m3]
Conditions	100 kPa	5000 kPa	10000 kPa	15000 kPa	20000 kPa	25000 kPa	30000 kPa	35000 kPa	40000 kPa
288.15 K, x1 = 0.0273	815.28	819.04	822.48	825.78	829.15	832.17	835.17	838.02	840.76
288.15 K, x1 = 0.0506	821.93	825.69	829.18	832.53	835.9	838.98	842.03	844.93	847.68
288.15 K, x1 = 0.0755	829.07	832.88	836.37	839.78	843.2	846.28	849.38	852.29	855.09
288.15 K, x1 = 0.1007	836.26	840.08	843.62	847.03	850.45	853.58	856.69	859.6	862.4
288.15 K, x1 = 0.1495	850.12	853.99	857.54	861.01	864.47	867.61	870.78	873.75	876.61
288.15 K, x1 = 0.2003	864.44	868.36	871.96	875.5	879	882.15	885.32	888.35	891.27
288.15 K, x1 = 0.2529	879.11	883.04	886.7	890.29	893.84	897.05	900.28	903.32	906.24
288.15 K, x1 = 0.2993	891.99	895.97	899.68	903.29	906.83	910.1	913.34	916.38	919.36
288.15 K, x1 = 0.3497	905.81	909.85	913.56	917.23	920.81	924.09	927.39	930.49	933.52
288.15 K, x1 = 0.401	919.74	923.79	927.61	931.33	934.96	938.25	941.6	944.76	947.8
288.15 K, x1 = 0.4509	933.25	937.3	941.17	944.96	948.59	951.93	955.29	958.51	961.56
288.15 K, x1 = 0.5002	946.47	950.58	954.46	958.3	961.98	965.33	968.75	971.97	975.08
288.15 K, x1 = 0.5498	959.76	963.88	967.81	971.66	975.38	978.79	982.22	985.5	988.61
288.15 K, x1 = 0.5996	973.01	977.19	981.12	984.99	988.75	992.17	995.65	998.94	1002.11
288.15 K, x1 = 0.6499	986.28	990.51	994.5	998.42	1002.18	1005.66	1009.15	1012.45	1015.62
288.15 K, x1 = 0.7006	999.56	1003.79	1007.79	1011.77	1015.53	1019.07	1022.61	1025.92	1029.15
288.15 K, x1 = 0.7471	1011.61	1015.85	1019.9	1023.94	1027.7	1031.24	1034.8	1038.16	1041.39
288.15 K, x1 = 0.7989	1025.02	1029.31	1033.41	1037.52	1041.32	1044.87	1048.43	1051.8	1055.05
288.15 K, x1 = 0.8491	1038.04	1042.34	1046.44	1050.56	1054.41	1057.97	1061.59	1065.02	1068.31
288.15 K, x1 = 0.8993	1051.07	1055.38	1059.54	1063.72	1067.56	1071.18	1074.81	1078.24	1081.55
288.15 K, x1 = 0.9249	1057.64	1061.95	1066.12	1070.3	1074.14	1077.81	1081.44	1084.88	1088.19
288.15 K, x1 = 0.9489	1063.77	1068.08	1072.25	1076.44	1080.27	1083.9	1087.54	1091.03	1094.34
288.15 K, x1 = 0.9743	1070.25	1074.61	1078.78	1082.98	1086.81	1090.45	1094.08	1097.53	1100.84
288.15 K, x1 = 1	1076.83	1081.15	1085.32	1089.52	1093.35	1096.99	1100.63	1104.08	1107.4
293.15 K, x1 = 0.0273	811.13	814.85	818.47	–	–	–	–	–	–
293.15 K, x1 = 0.0506	817.67	821.44	825.06	–	–	–	–	–	–
293.15 K, x1 = 0.0755	824.75	828.52	832.19	–	–	–	–	–	–
293.15 K, x1 = 0.1007	831.84	835.66	839.38	–	–	–	–	–	–
293.15 K, x1 = 0.1495	845.58	849.45	853.18	–	–	–	–	–	–
293.15 K, x1 = 0.2003	859.73	863.66	867.43	–	–	–	–	–	–
293.15 K, x1 = 0.2529	874.29	878.27	–	–	–	–	–	–	–
293.15 K, x1 = 0.2993	887.05	891.08	–	–	–	–	–	–	–
293.15 K, x1 = 0.3497	900.71	904.78	–	–	–	–	–	–	–
293.15 K, x1 = 0.401	914.47	918.61	–	–	–	–	–	–	–
293.15 K, x1 = 0.4509	927.86	932.05	–	–	–	–	–	–	–
293.15 K, x1 = 0.5002	940.97	945.21	–	–	–	–	–	–	–
293.15 K, x1 = 0.5498	954.1	958.38	–	–	–	–	–	–	–
293.15 K, x1 = 0.5996	967.18	971.52	–	–	–	–	–	–	–
293.15 K, x1 = 0.6499	980.33	984.67	–	–	–	–	–	–	–
293.15 K, x1 = 0.7006	993.49	997.89	–	–	–	–	–	–	–
293.15 K, x1 = 0.7471	1005.43	1009.83	–	–	–	–	–	–	–
293.15 K, x1 = 0.7989	1018.72	1023.17	–	–	–	–	–	–	–
293.15 K, x1 = 0.8491	1031.57	1036.07	–	–	–	–	–	–	–
293.15 K, x1 = 0.8993	1044.49	1049.04	–	–	–	–	–	–	–
293.15 K, x1 = 0.9249	1051	1055.55	–	–	–	–	–	–	–
293.15 K, x1 = 0.9489	1057.07	1061.62	–	–	–	–	–	–	–
293.15 K, x1 = 0.9743	1063.49	1068.04	–	–	–	–	–	–	–
293.15 K, x1 = 1	1070.06	1074.62	–	–	–	–	–	–	–

Source: the NIST ThermoML archive (doi:10.1016/j.jct.2019.02.011)
